Measured values taken from article PMC11375794, “Discovery of new Hsp90–Cdc37 protein–protein interaction inhibitors: in silico screening and optimization of anticancer activity” (RSC Advances, 2024).

How the values were obtained:
full-length Hsp90β = target: T1, full-length Hsp90β (Homo sapiens, UniProt P08238); assay: Ligand-observed protein NMR (STD, trNOESY) with Hsp90β; format: binding; conditions: for STD amplification factor (AMP): Hsp90β : ligand 1 : 200
T1 construct: For the protein expression of full-length Hsp90β, we received plasmids as a kind gift; made in house; host or cells: Escherichia coli strain Rosetta
T1 sequence (P08238 whole entry): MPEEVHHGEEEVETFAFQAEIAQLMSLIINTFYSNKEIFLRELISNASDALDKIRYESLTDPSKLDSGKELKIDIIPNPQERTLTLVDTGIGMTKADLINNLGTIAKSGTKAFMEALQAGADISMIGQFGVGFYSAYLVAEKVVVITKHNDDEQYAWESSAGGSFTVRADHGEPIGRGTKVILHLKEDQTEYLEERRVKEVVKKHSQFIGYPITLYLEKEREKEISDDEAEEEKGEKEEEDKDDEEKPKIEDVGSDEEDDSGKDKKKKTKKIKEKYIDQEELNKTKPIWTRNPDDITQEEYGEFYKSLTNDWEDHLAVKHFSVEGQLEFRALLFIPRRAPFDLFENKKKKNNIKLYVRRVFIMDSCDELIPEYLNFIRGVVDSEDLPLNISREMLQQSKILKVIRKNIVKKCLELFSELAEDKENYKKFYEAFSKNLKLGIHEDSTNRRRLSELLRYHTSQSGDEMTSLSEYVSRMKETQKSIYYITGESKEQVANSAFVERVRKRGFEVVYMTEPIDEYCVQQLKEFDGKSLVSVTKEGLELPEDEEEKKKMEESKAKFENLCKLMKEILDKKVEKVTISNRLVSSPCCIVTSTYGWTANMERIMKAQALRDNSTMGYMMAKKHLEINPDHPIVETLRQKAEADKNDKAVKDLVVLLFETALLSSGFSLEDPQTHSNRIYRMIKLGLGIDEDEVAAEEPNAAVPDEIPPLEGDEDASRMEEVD
Method: High-resolution NMR spectra of 13g were recorded using a Bruker Avance Neo 600 MHz spectrometer with a cryoprobe at 25 °C. Data collection employed pulse sequences from the Bruker library, and analysis was conducted using Bruker Topspin 4.2.0. The residual water signal was suppressed by excitation sculpting[54] with a 5 ms selective pulse, and a T1ρ filter of 100 ms was used to remove background protein resonances. The ^1H spectral widths were set at 5263 Hz. NMR samples were prepared in a buffer containing 50 mM potassium phosphate (pD 7.5), 100 mM KCl in D2O, 5 mM MgSO4, 2 mM DTT-d10, 0.02% NaN3, and 2% DMSO-d6. Full proton assignment (see ESI Fig. S6 and Table S2 ^†) was achieved using TOCSY, NOESY, ROESY, and HSQC spectra. The ^1H STD spectra were recorded with a protein : ligand ratio of 1 : 200, with protein and ligand concentrations of […] and 3 mM.
For the ^1H STD ligand epitope mapping experiments,[55] 65 536 data points (6.23 s and acquisition time) were used, with a relaxation delay of 1.63 s and 5120 scans. A short protein saturation time of 0.5 s was utilized to minimize the effect of relaxation on the STD amplification factors.[56] Selective on-resonance saturation of Hsp90β was performed at −0.827 ppm, with the transmitter offset referenced to 4.70 ppm. Off-resonance irradiation for the reference spectrum was applied at 30 ppm. The spectra were zero-filled and apodized using an exponential line-broadening function of 3 Hz. Errors in the STD amplification factor were estimated using the specified formula:[57] [drawing 46] NSTD and NREF are noise levels in STD and reference spectra. ISTD and IREF are signal intensities in STD and reference spectra. The relative errors of the STD amplification factors (Tables S3 and S6 ^†) for all protons are below 4%.
The trNOESY[58] spectra were recorded with 4096 data points in t2, 64 scans, 360 complex points in t1, and a relaxation delay of 1.5 s. […] The spectra were apodized with a squared sine bell function shifted by π/2 in both dimensions. Distances for 13g were calculated from the cross-peak volumes, assuming the integrated intensity of proton pairs 2′, 4′ and 1′, 5′ in the para-substituted phenyl ring with a distance of 2.5 Å and that the distances of the protons in pyrimidine ring are the same.

[1] = tested on: MCF-7 breast cancer cell line; assay: MTS cell viability (antiproliferative) assay in MCF-7; format: cell-based; conditions: Homo sapiens, MCF7, 72 h, MTS assay, 72 hours, mean ± SD

Row | SMILES | binding to Hsp90β by transferred NOESY (trNOESY) (full-length Hsp90β; negative NOEs in the presence of Hsp90β) | STD amplification factor (AMP) (full-length Hsp90β; proton 1'') | STD amplification factor (AMP) (full-length Hsp90β; proton 3'') | STD amplification factor (AMP) (full-length Hsp90β; protons 1', 5') | STD amplification factor (AMP) (full-length Hsp90β; protons 1, 5) | STD amplification factor (AMP) (full-length Hsp90β; protons 2', 4') | STD amplification factor (AMP) (full-length Hsp90β; protons 2,3,4) | IC50 [1] [µM]
1 | O=C(NCCOc1ccccc1)c1ccc(Nc2cc(N3CCNCC3)ncn2)cc1 [Compound 13g, N-(2-Phenoxyethyl)-4-((6-(piperazin-1-yl)pyrimidin-4-yl)amino)benzamide] | confirmed | 0.83 | 4.88 | 1.75 | 2.18 | 1.78 | 2.14 | 19.3 ± 2
2 | CN(CCOc1ccccc1)C(=O)c1csc(Nc2cc(N3CCNCC3)ncn2)n1 [Compound 8c, N-Methyl-N-(2-phenoxyethyl)-2-((6-(piperazin-1-yl)pyrimidin-4-yl)amino)thiazole-4-carboxamide] |  |  |  |  |  |  |  | 20 ± 1.2
